Experimental data reported in US11136292B2, “Plant growth regulator compounds” (SYNGENTA PARTICIPATIONS AG, priority 2016, dated 2021).
Read-outs that look alike come from different tables or passages of the source.

Tested on: NK Falkone 2015 corn seeds
Test: Corn seed germination under cold stress (Example B1)
Assay type: in vivo
Conditions: Zea mays, cold stress 15° C.; for change in vivo at 2 µM: Rate 2 μM; for change in vivo at 10 µM: Rate 10 μM; for change in vivo at 50 µM: Rate 50 μM; for change in vivo at 250 µM: Rate 250 μM; for change in vivo at 0.4 µM: Rate 0.4 μM
Protocol: The effect of compounds of formula (I) on the germination of NK Falkone 2015 corn seeds under cold stress was evaluated as follows. NK Falkone corn seeds were sorted by size using 2 sieves, one excluding very big seeds and the other with round holes of 8 to 9 mm diameter. The seeds retained by the latter sieve were used for the germination test. The corn seeds were placed in 24 well plates (each plate was considered as one experimental unit or replicate). Germination was initiated by the addition of 250 μl of distilled water containing 0.5% DMSO per well as a means for compound solubilization. 8 replicates (ie, 8 plates) were used for each treatment characterization. Plates were sealed using seal foil (Polyolefin Art. Nr. 900320) from HJ-BIOANALYTIK. All plates were placed horizontally on trolleys in a climatic chamber at 15° C. The experiment was laid out in a completely randomized design in climatic chamber with 75% Relative Humidity. Foils were pierced, one hole per well using a syringe after 72 hours for experiments performed at 15° C.
Germination was followed over time by taking photographs at different time points. Image analysis was performed automatically with a macro which was developed using the Image J software. A dynamic analysis of germination was carried out by fitting a logistic curve. Three parameters were calculated from the logistic curve: the T50; the slope and the plateau. All three parameters have a high agronomical relevance and are key requirements to ensure a good early crop-establishment. All the values are expressed as percentages compared to an untreated control. All the three parameters are calculated considering 8 replicates and the kinetic parameters are separately determined for each germination curve. Data in bold indicate germination enhancing statistically significant differences between treated seeds and untreated control (p<0.05). The T50 corresponds to the time needed for half of the seed population to germinate. Higher negative %-values indicate faster germination. The slope indicates how synchronous the germination of the seed population is. Positive values indicate steeper curve; the steeper the curve, the better and more uniform the germination is.

[1] = slope of logistic germination curve, read-out: Slope (% vs control)
[2] = time for half of seeds to germinate, control T50 = 110 hours, read-out: T50 (% vs control)

SMILES | change in vivo at 2 µM [1] | change in vivo at 2 µM [2] | change in vivo at 10 µM [1] | change in vivo at 10 µM [2] | change in vivo at 50 µM [1] | change in vivo at 50 µM [2] | change in vivo at 250 µM [1] | change in vivo at 250 µM [2] | change in vivo at 0.4 µM [1] | change in vivo at 0.4 µM [2]
CCOC(=O)/C(=C/OC1C=C(C)C(=O)O1)C1CCc2ccccc21 (centres unmarked) [Compound I-1] | 8.1% | -0.5% | 10% | 1.6% | 27.9% | -2.8% | 142% | -7.2% | – | –
CCOC(=O)/C(=C/OC1OC(=O)C(C)=C1C)C1CCc2ccccc21 (centres unmarked) [Compound I-2] | -11.8% | 2.3% | 18.1% | -3% | 47% | -6.2% | 121% | -10.1% | – | –
CCOC(=O)/C(=C/OC1C=C(C)C(=O)N1c1cc(C(F)(F)F)cc(C(F)(F)F)c1)C1CCc2ccccc21 (centres unmarked) [Compound I-7] | 63.9% | -3.4% | 69.8% | -3.5% | 78.8% | -6.6% | 11.3% | -1.8% | – | –
COC(=O)/C(=C/OC1C=C(C)C(=O)O1)C1CCc2ccccc21 (centres unmarked) [Compound I-10] | 8.2% | -0.9% | 10.7% | -0.8% | 30.3% | -3.3% | 82.5% | -7.4% | – | –
COC(=O)/C(=C/OC1OC(=O)C(C)=C1C)C1CCc2ccccc21 (centres unmarked) [Compound I-11] | 11.4% | -1% | 7.4% | 0.2% | 20.1% | -5.1% | 89.6% | -6.9% | – | –
CNC(=O)/C(=C/OC1C=C(C)C(=O)O1)C1CCc2ccccc21 (centres unmarked) [Compound I-37-1] | 10.8% | -1.3% | -15.7% | -2.5% | 5.2% | -2.6% | 51.7% | -4.6% | – | –
CNC(=O)/C(=C/OC1C=C(C)C(=O)N1c1cc(C(F)(F)F)cc(C(F)(F)F)c1)C1CCc2ccccc21 (centres unmarked) [Compound I-55-1] | -8.1% | 1.7% | 3.8% | -1.4% | 61.1% | -6.8% | 89.8% | -10.6% | – | –
CCOC(=O)/C(=C/OC1C=C(C)C(=O)O1)C1CCc2cc(OC)c(OC)cc21 (centres unmarked) [Compound I-64] | 1.1% | -1.4% | -1.6% | -3.2% | 27.9% | -4.6% | 83.8% | -10.7% | – | –
CCOC(=O)/C(=C/OC1OC(=O)C(C)=C1C)C1CCc2cc(OC)c(OC)cc21 (centres unmarked) [Compound I-65] | 1% | -0.9% | 18.8% | -3.1% | 23% | -2.6% | 123% | -12.6% | – | –
CCOC(=O)/C(=C/OC1C=C(C)C(=O)O1)C1CCc2cc3c(cc21)OCO3 (centres unmarked) [Compound I-66] | 22.6% | -5.2% | 2.9% | -2.9% | 34.5% | -5.1% | 31.6% | -5.8% | – | –
CCOC(=O)/C(=C/OC1C=C(C)C(=O)O1)C1CCc2c(C)cccc21 (centres unmarked) [Compound I-68] | 23.4% | -1.2% | 3.8% | -0.6% | 44.7% | -5.7% | 113% | -6.8% | – | –
CCOC(=O)/C(=C/OC1C=C(C)C(=O)O1)C1CCc2c1cccc2C(F)(F)F (centres unmarked) [Compound I-70] | 9% | -2.5% | 18.4% | -0.2% | 87.9% | -6.8% | 115% | -8.6% | – | –
CCOC(=O)/C(=C/OC1OC(=O)C(C)=C1C)C1CCc2ccc(C(F)(F)F)cc21 (centres unmarked) [Compound I-73] | -1.1% | -3.5% | 14.2% | -6.3% | 57.8% | -7.8% | 54.1% | -9.2% | – | –
CCOC(=O)/C(=C/OC1OC(=O)C(C)=C1C)C1CCCc2ccccc21 (centres unmarked) [Compound I-75] | 4.9% | -3.5% | 5.6% | -2.6% | 58.4% | -6.5% | 44.2% | -5% | – | –
CCOC(=O)/C(=C/OC1C=C(C)C(=O)O1)C1Cc2ccccc21 (centres unmarked) [Compound I-76] | -5% | -0.7% | 50.6% | -6.4% | 122% | -8.8% | – | – | -5.6% | -0.5%
CCOC(=O)/C(=C/OC1OC(=O)C(C)=C1C)C1CCc2ccsc21 (centres unmarked) [Compound I-83] | 6.5% | -3% | 34.1% | -2.2% | 32.6% | -4.8% | 157% | -8.6% | – | –
CCOC(=O)/C(=C/OC1C=C(C)C(=O)O1)C1CCC[C@@]2(C)CCC12 (some centres unmarked) [Compound I-86] | 17.1% | 0.2% | 20.2% | -2.7% | 138% | -9.7% | 150% | -11.2% | – | –
CCOC(=O)/C(=C/OC1C=C(C)C(=O)O1)C1CCOc2ccccc21 (centres unmarked) [Compound I-90] | -10% | 3.2% | -0.32% | 2.8% | 4.6% | 0.45% | 83.6% | -6.7% | – | –
CCOC(=O)/C(=C/OC1OC(=O)C(C)=C1C)C1CCOc2ccccc21 (centres unmarked) [Compound I-91] | -15.3% | 2.5% | -5.4% | 2.7% | 18.8% | -1.5% | 67.4% | -6.1% | – | –
CCOC(=O)/C(=C/OC1OC(=O)C(C)=C1C)C1COc2ccccc21 (centres unmarked) [Compound I-95] | -2% | 1.6% | -13.9% | 1.6% | 2.7% | 0.6% | 81.5% | -6.7% | – | –
CC1=CC(O/C=C2/C(=O)OC3c4ccccc4CC23)OC1=O (centres unmarked) [Prior art 1] | -0.7% | -1.5% | -11.3% | -0.1% | 6.2% | -1.85% | 36.3% | -3.4% | – | –
CC1=C(C)C(O/C=C2/C(=O)OC3c4ccccc4CC23)OC1=O (centres unmarked) [Prior art 2] | -1.3% | -1.5% | 1.4% | 1.7% | 9.6% | -1.6% | 15.8% | -2.1% | – | –
